What is called solubility is how much of the substance goes into solution per volume. Low readings indicate a poorly soluble substance, high ones a readily soluble substance.

Consider one compound from patent US6485743B1, “Method and composition of an oral preparation of itraconazole” (Choongwae Pharma Corporation, priority 1997, dated 2002).

Each structure is given as a SMILES string.

For data set [1] the following is noted: pH 8.1 aqueous buffer/n-octanol system; cited from earlier work.
Data set [2] is described as follows: Comparative test of solubility of the solid dispersions in polymer. In kind it is physicochemical. The settings on record: simulated gastric fluid, thermodynamic from solid, simulated gastric juice (pH 1.2), 25° C., itraconazole:hydrophilic polymer=1:1.5 (w/w), n=3, Average ± Standard deviation.
The conditions of data set [3]: cited from earlier work.

Consider `CCC(C)n1ncn(-c2ccc(N3CCN(c4ccc(OCC5COC(Cn6cncn6)(c6ccc(Cl)cc6Cl)O5)cc4)CC3)cc2)c1=O` (mixture of isomers) [itraconazole, (±)-cis-4-[4-[4-[4-[[2-(2,4-dichlorophenyl)-2-(1H-1,2,4-triazol-1-ylmethyl)-1,3-dioxolan-4-yll]methoxy]phenyl]-1-piperazinyl]phenyl]-2,4-dihydro-2-(1-methylpropyl)-3H-1,2,4-triazol-3-one], for which the oil/water partition coefficient in data set [1] is recorded as 5.66. In addition, the solubility at 24 h in data set [2] is 1.38 ± 0.11 µg/mL. Besides, the “solubility in diluted acidic solution” value in data set [3] (diluted acidic solution) is “less than 5 μg/ml”. For the same compound, the solubility in water result in data set [3] (water) is reported as “less than 1 μg/ml”.
